Active and inactive are the calls of the source. No rule for the calls is given here.
System: CCRIS mutagenicity, Ames/micronucleus/aberration tests
Test: CCRIS mutagenicity studies

Measured: mutagenic call

CCCCC(CC)COC(=O)c1ccccc1C(=O)OCC(CC)CCCC (stereo not drawn)
inactive: End Point: IN VITRO MICRONUCLEUS, Test System: V79 CELLS, Metabolic Activation: NONE inactive; negative | End Point: IN VITRO MICRONUCLEUS, Test System: V79 CELLS, Metabolic Activation: RAT, LIVER, S-9, AROCLOR 1254 inactive; negative | End Point: IN VIVO MICRONUCLEUS, Test System: HEPATOCYTES, Species: RAT, Strain/Sex: FISHER 344 OR SD/MALE, Route: ORAL OR IP inactive; negative | End Point: IN VIVO MICRONUCLEUS, Test System: PERIPHERAL BLOOD RETICULOCYTES, Species: RAT, Strain/Sex: FISHER 344 OR SD/MALE, Route: ORAL OR IP inactive; negative | Test System: AMES SALMONELLA TYPHIMURIUM, Strain/Indicator: TA97, Metabolic Activation: HAMSTER LIVER S-9, AROCLOR 1254 (10 OR 30%), Method: PREINCUBATION inactive; negative | Test System: AMES SALMONELLA TYPHIMURIUM, Strain/Indicator: TA97, Metabolic Activation: NONE, Method: PREINCUBATION inactive; negative | Test System: AMES SALMONELLA TYPHIMURIUM, Strain/Indicator: TA97, Metabolic Activation: NONE, Method: STANDARD PLATE inactive; negative | Test System: AMES SALMONELLA TYPHIMURIUM, Strain/Indicator: TA97, Metabolic Activation: RAT LIVER S-9, AROCLOR 1254 (10 OR 30%), Method: PREINCUBATION inactive; negative | Test System: AMES SALMONELLA TYPHIMURIUM, Strain/Indicator: TA97, Metabolic Activation: S-9, Method: STANDARD PLATE inactive; negative | Test System: AMES SALMONELLA TYPHIMURIUM, Strain/Indicator: TA98, Metabolic Activation: HAMSTER LIVER S-9, AROCLOR 1254 (10 OR 30%), Method: PREINCUBATION inactive; negative | Test System: AMES SALMONELLA TYPHIMURIUM, Strain/Indicator: TA98, Metabolic Activation: HAMSTER, LIVER, S-9, AROCLOR 1254 (10%), Method: PREINCUBATION inactive; negative | Test System: AMES SALMONELLA TYPHIMURIUM, Strain/Indicator: TA98, Metabolic Activation: NONE, Method: FLUCTUATION (MICROTITER) inactive; negative | Test System: AMES SALMONELLA TYPHIMURIUM, Strain/Indicator: TA98, Metabolic Activation: NONE, Method: STANDARD PLATE inactive; negative | Test System: AMES SALMONELLA TYPHIMURIUM, Strain/Indicator: TA98, Metabolic Activation: RAT LIVER S-9, AROCLOR 1254 (10 OR 30%), Method: PREINCUBATION inactive; negative | Test System: AMES SALMONELLA TYPHIMURIUM, Strain/Indicator: TA98, Metabolic Activation: RAT LIVER S-9, AROCLOR 1254, Method: FLUCTUATION (MICROTITER) inactive; negative | Test System: AMES SALMONELLA TYPHIMURIUM, Strain/Indicator: TA98, Metabolic Activation: RAT LIVER S-9, PHENOBARBITAL AND BETA-NAPHTHOFLAVONE, Method: PREINCUBATION inactive; negative | Test System: AMES SALMONELLA TYPHIMURIUM, Strain/Indicator: TA98, Metabolic Activation: RAT, LIVER, S-9, AROCLOR 1254 (10%), Method: PREINCUBATION inactive; negative | Test System: AMES SALMONELLA TYPHIMURIUM, Strain/Indicator: TA98, Metabolic Activation: RAT, LIVER, S-9, AROCLOR 1254, Method: STANDARD PLATE inactive; negative | Test System: AMES SALMONELLA TYPHIMURIUM, Strain/Indicator: TA98, Metabolic Activation: S-9, Method: STANDARD PLATE inactive; negative | Test System: AMES SALMONELLA TYPHIMURIUM, Strain/Indicator: TA100, Metabolic Activation: HAMSTER LIVER S-9, AROCLOR 1254 (10 OR 30%), Method: PREINCUBATION inactive; negative | Test System: AMES SALMONELLA TYPHIMURIUM, Strain/Indicator: TA100, Metabolic Activation: HAMSTER, LIVER, S-9, AROCLOR 1254 (10%), Method: PREINCUBATION inactive; negative | Test System: AMES SALMONELLA TYPHIMURIUM, Strain/Indicator: TA100, Metabolic Activation: NONE, Method: STANDARD PLATE inactive; negative | Test System: AMES SALMONELLA TYPHIMURIUM, Strain/Indicator: TA100, Metabolic Activation: RAT LIVER S-9, AROCLOR 1254 (10 OR 30%), Method: PREINCUBATION inactive; negative | Test System: AMES SALMONELLA TYPHIMURIUM, Strain/Indicator: TA100, Metabolic Activation: RAT LIVER S-9, PHENOBARBITAL AND BETA-NAPHTHOFLAVONE, Method: PREINCUBATION inactive; negative | Test System: AMES SALMONELLA TYPHIMURIUM, Strain/Indicator: TA100, Metabolic Activation: RAT, LIVER, S-9, AROCLOR 1254 (10%), Method: PREINCUBATION inactive; negative | Test System: AMES SALMONELLA TYPHIMURIUM, Strain/Indicator: TA100, Metabolic Activation: RAT, LIVER, S-9, AROCLOR 1254, Method: STANDARD PLATE inactive; negative | Test System: AMES SALMONELLA TYPHIMURIUM, Strain/Indicator: TA100, Metabolic Activation: S-9, Method: STANDARD PLATE inactive; negative | Test System: AMES SALMONELLA TYPHIMURIUM, Strain/Indicator: TA102, Metabolic Activation: CO631 CELLS, Method: STANDARD PLATE inactive; negative | Test System: AMES SALMONELLA TYPHIMURIUM, Strain/Indicator: TA102, Metabolic Activation: NONE, Method: STANDARD PLATE inactive; negative | Test System: AMES SALMONELLA TYPHIMURIUM, Strain/Indicator: TA102, Metabolic Activation: PANCREATIN, Method: STANDARD PLATE inactive; negative | Test System: AMES SALMONELLA TYPHIMURIUM, Strain/Indicator: TA102, Metabolic Activation: PORCINE, PANCREAS, LIPASES, Method: STANDARD PLATE inactive; negative | Test System: AMES SALMONELLA TYPHIMURIUM, Strain/Indicator: TA102, Metabolic Activation: RAT HEPATOCYTES, Method: STANDARD PLATE inactive; negative | Test System: AMES SALMONELLA TYPHIMURIUM, Strain/Indicator: TA102, Metabolic Activation: RAT LIVER S-9, PHENOBARBITAL AND 5,6-BENZOFLAVONE, Method: STANDARD PLATE inactive; negative | Test System: AMES SALMONELLA TYPHIMURIUM, Strain/Indicator: TA102, Metabolic Activation: S-9, Method: STANDARD PLATE inactive; negative | Test System: AMES SALMONELLA TYPHIMURIUM, Strain/Indicator: TA1535, Metabolic Activation: HAMSTER LIVER S-9, AROCLOR 1254 (10 OR 30%), Method: PREINCUBATION inactive; negative | Test System: AMES SALMONELLA TYPHIMURIUM, Strain/Indicator: TA1535, Metabolic Activation: HAMSTER, LIVER, S-9, AROCLOR 1254 (10%), Method: PREINCUBATION inactive; negative | Test System: AMES SALMONELLA TYPHIMURIUM, Strain/Indicator: TA1535, Metabolic Activation: NONE, Method: STANDARD PLATE inactive; negative | Test System: AMES SALMONELLA TYPHIMURIUM, Strain/Indicator: TA1535, Metabolic Activation: RAT LIVER S-9, AROCLOR 1254 (10 OR 30%), Method: PREINCUBATION inactive; negative
